Measurements as given in patent US20220016115A1, “USP19 INHIBITORS FOR USE IN THERAPY” (ALMAC DISCOVERY LIMITED, priority 2018, published 2022).

Target: T1, USP19 (Homo sapiens, UniProt O94966)
T1 sequence (O94966 1-1318): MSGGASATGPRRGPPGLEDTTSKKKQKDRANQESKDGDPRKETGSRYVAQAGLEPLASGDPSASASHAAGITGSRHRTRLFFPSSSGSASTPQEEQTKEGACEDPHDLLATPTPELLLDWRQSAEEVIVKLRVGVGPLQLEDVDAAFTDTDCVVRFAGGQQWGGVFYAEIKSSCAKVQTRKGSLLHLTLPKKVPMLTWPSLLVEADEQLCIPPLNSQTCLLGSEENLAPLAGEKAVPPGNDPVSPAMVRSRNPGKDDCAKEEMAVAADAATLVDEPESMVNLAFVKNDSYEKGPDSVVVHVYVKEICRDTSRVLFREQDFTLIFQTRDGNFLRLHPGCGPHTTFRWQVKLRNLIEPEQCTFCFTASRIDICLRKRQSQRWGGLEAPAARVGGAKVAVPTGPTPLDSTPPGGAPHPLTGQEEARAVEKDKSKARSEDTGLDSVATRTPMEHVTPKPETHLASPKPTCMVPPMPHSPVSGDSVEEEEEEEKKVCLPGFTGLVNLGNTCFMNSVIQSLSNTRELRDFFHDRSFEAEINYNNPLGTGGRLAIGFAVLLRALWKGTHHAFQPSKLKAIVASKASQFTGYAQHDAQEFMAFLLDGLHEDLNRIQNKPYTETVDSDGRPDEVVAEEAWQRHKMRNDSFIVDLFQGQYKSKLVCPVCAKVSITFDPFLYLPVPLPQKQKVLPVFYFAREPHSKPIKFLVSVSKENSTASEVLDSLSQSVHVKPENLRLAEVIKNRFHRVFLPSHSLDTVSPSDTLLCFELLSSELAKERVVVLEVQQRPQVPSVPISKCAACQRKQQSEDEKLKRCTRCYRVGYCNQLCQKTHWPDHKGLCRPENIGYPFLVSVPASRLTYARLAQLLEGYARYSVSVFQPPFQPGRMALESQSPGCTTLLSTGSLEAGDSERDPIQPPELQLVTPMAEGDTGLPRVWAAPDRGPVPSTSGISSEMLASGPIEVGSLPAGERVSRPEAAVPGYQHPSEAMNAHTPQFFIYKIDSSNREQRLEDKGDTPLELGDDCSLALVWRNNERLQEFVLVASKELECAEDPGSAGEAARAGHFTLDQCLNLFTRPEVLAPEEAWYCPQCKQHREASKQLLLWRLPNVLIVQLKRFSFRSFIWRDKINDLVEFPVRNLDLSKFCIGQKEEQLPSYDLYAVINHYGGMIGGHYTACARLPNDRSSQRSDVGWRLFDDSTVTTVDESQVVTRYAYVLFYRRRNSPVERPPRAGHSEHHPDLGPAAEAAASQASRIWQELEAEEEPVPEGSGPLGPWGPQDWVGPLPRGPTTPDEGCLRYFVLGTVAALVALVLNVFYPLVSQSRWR
Assay: USP19 fluorescence polarisation (FP) homogeneous assay
Assay type: biochemical
Set-up: Full-length USP19 was purchased from Boston Biochem (E-576); purchased Boston Biochem E-576
Details: Ubiquitin-Lys-TAMRA substrate, full-length USP19 2.5 nM, average of at least two duplicate experiments
Experimental: Unless otherwise stated, all other reagents were purchased from Sigma. Enzymatic reactions were conducted in black flat bottom polystyrene 384-well plates (Nunc) and 30 μL total volume. […] Inhibitors were stored as 10 mM DMSO stocks in an inert environment (low humidity, dark, low oxygen, room temperature) using the Storage Pod System and serial dilutions were prepared in buffer just prior to the assay (from 200 μM to 2 μM, 8-18 data point curve). Following incubation at RT for 30 min, the enzymatic reactions were initiated by dispensing the Ub substrate (500 nM, 10 μL). FP was measured every 15 min over a period of 90 min (within the linear range of the assay) using a Synergy 4 plate reader (BioTek) exciting at 530 nm and measuring the amount of parallel and perpendicular light at 575 nm. The FP signal was subsequently normalised to the no compound control.

`C[C@H](CC1CCCCC1)C(=O)N1CC[C@@](O)(Cn2cc(C(=O)N3CCNCC3)c(-c3ccccc3F)cc2=O)C2(CCCC2)C1` [Example 227, 1-(((S)-7-((R)-3-Cyclohexyl-2-methylpropanoyl)-10-hydroxy-7-azaspiro[4.5]decan-10-yl)methyl)-4-(2-fluorophenyl)-5-(piperazine-1-carbonyl)pyridin-2(1 H)-one] and `C[C@H](CC1CCCCC1)C(=O)N1CCC(O)(Cn2cc(C(=O)N3CCNCC3)c(-c3ccccc3)cc2=O)C2(CCCCC2)C1` (stereo partly drawn) [Example 238, 1-((2-((R)-3-Cyclohexyl-2-methylpropanoyl)-5-hydroxy-2-azaspiro[5.5]undecan-5-yl)methyl)-4-phenyl-5-(piperazine-1-carbonyl)pyridin-2(1H)-one] cannot be ordered by IC50: less than 500 nM for the first, less than 500 nM for the second.

`C[C@H](CC1CCCCC1)C(=O)N1CCC(O)(Cn2cc(C(=O)N3CCN(C)CC3)c(-c3ccccc3)cc2=O)C(C)(C)C1` (stereo partly drawn) [Example 170, 1-((1-((R)-3-Cyclohexyl-2-methylpropanoyl)-4-hydroxy-3,3-dimethylpiperidin-4-yl)methyl)-5-(4-methylpiperazine-1-carbonyl)-4-phenylpyridin-2(1H)-one] and `C[C@@H]1CN(C(=O)c2cn(C[C@]3(O)CCN(C(=O)[C@H](C)CC4CCCCC4)CC3(C)C)c(=O)cc2-c2ccccc2)CCN1` [Example 213, 1-(((S)-1-((R)-3-Cyclohexyl-2-methylpropanoyl)-4-hydroxy-3,3-dimethylpiperidin-4-yl)methyl)-5-((R)-3-methylpiperazine-1-carbonyl)-4-phenylpyridin-2(1 H)-one] cannot be ordered by IC50: less than 500 nM for the first, less than 500 nM for the second.

`C[C@H](CC1CCCCC1)C(=O)N1CC[C@@](O)(Cn2cc(C(=O)N3CCNCC3)c(-c3ccccc3F)cc2=O)C(C)(C)C1` [Example 206, 1-(((S)-1-((R)-3-Cyclohexyl-2-methylpropanoyl)-4-hydroxy-3,3-dimethylpiperidin-4-yl)methyl)-4-(2-fluorophenyl)-5-(piperazine-1-carbonyl)pyridin-2(1 H)-one] and `C[C@H](CC1CCCCC1)C(=O)N1CC[C@@](O)(Cn2cc(C(=O)N3CCNC[C@H]3CO)c(-c3ccccc3)cc2=O)C(C)(C)C1` [Example 208, 1-(((S)-1-((R)-3-Cyclohexyl-2-methylpropanoyl)-4-hydroxy-3,3-dimethylpiperidin-4-yl)methyl)-5-((S)-2-(hydroxymethyl)piperazine-1-carbonyl)-4-phenylpyridin-2(1H)-one] cannot be ordered by IC50: less than 500 nM for the first, less than 500 nM for the second.

`C[C@H](CC(F)(F)F)C(=O)N1CC[C@@](O)(Cn2cnc(-c3ccccc3)cc2=O)C2(CCCC2)C1` [Example 255, 3-(((S)-10-Hydroxy-7-((R)-4,4,4-trifluoro-2-methylbutanoyl)-7-azaspiro[4.5]decan-10-yl)methyl)-6-phenylpyrimidin-4(3H)-one] and `C[C@H](CC(F)(F)F)C(=O)N1CC[C@@](O)(Cn2cnc(-c3ccccc3F)cc2=O)C2(CCCC2)C1` [Example 256, 6-(2-Fluorophenyl)-3-(((S)-10-hydroxy-7-((R)-4,4,4-trifluoro-2-methylbutanoyl)-7-azaspiro[4.5]decan-10-yl)methyl)pyrimidin-4(3H)-one] cannot be ordered by IC50: less than 500 nM for the first, less than 500 nM for the second.

First: C[C@H](CC1CCCCC1)C(=O)N1CCC(O)(Cn2cnc(-c3ccccc3F)cc2=O)C2(CCC2)C1 (mixture of isomers) [Example 51, 3-(((R)-6-((R)-3-Cyclohexyl-2-methylpropanoyl)-9-hydroxy-6-azaspiro[3.5]nonan-9-yl)methyl)-6-(2-fluorophenyl)pyrimidin-4(3H)-one and 3-(((S)-6-((R)-3-Cyclohexyl-2-methylpropanoyl)-9-hydroxy-6-azaspiro[3.5]nonan-9-yl)methyl)-6-(2-fluorophenyl)pyrimidin-4(3H)-one]
Second: C[C@H](CC1CCCCC1)C(=O)N1CCC(O)(Cn2cnc(-c3ccccc3CN)cc2=O)C(C)(C)C1 (stereo partly shown) [Example 141]
The IC50 of the first is higher: 500 to 5000 nM for the first, less than 500 nM for the second. The second is the more potent here.

`CN(C)C(=O)c1cn(C[C@]2(O)CCN(C(=O)[C@H](CO)CC(F)(F)F)CC23CCCC3)c(=O)cc1-c1ccccc1` [Example 247, 1-(((S)-10-Hydroxy-7-((S)-4,4,4-trifluoro-2-(hydroxymethyl)butanoyl)-7-azaspiro[4.5]decan-10-yl)methyl)-N,N-dimethyl-6-oxo-4-phenyl-1,6-dihydropyridine-3-carboxamide] and `O=C(c1cn(C[C@]2(O)CCN(C(=O)[C@H](CO)CC(F)(F)F)CC23CCCC3)c(=O)cc1-c1ccccc1)N1CCNCC1` [Example 249, 1-(((S)-10-Hydroxy-7-((S)-4,4,4-trifluoro-2-(hydroxymethyl)butanoyl)-7-azaspiro[4.5]decan-10-yl)methyl)-4-phenyl-5-(piperazine-1-carbonyl)pyridin-2(1H)-one] cannot be ordered by IC50: less than 500 nM for the first, less than 500 nM for the second.

First: C[C@H](CC(=O)N1CCC(O)(Cn2cnc(-c3ccccc3)cc2=O)C(C)(C)C1)c1ccccc1 (mixture of isomers) [Example 53, 3-(((S)-4-Hydroxy-3,3-dimethyl-1-((R)-3-phenylbutanoyl)piperidin-4-yl)methyl)-6-phenylpyrimidin-4(3H)-one and 3-(((R)-4-hydroxy-3,3-dimethyl-1-((R)-3-phenylbutanoyl)piperidin-4-yl)methyl)-6-phenylpyrimidin-4(3H)-one]
Second: C[C@H](CC(=O)N1CCC(O)(Cn2cnc(-c3ccccc3)cc2=O)CC1(C)C)c1ccccc1 (mixture of isomers) [Example 61, 3-(((R)-4-Hydroxy-2,2-dimethyl-1-((R)-3-phenylbutanoyl)piperidin-4-yl)methyl)-6-phenylpyrimidin-4(3H)-one and 3-(((S)-4-Hydroxy-2,2-dimethyl-1-((R)-3-phenylbutanoyl)piperidin-4-yl)methyl)-6-phenylpyrimidin-4(3H)-one]
The IC50 of the first is lower: 500 to 5000 nM for the first, 50000 to 250000 nM for the second. The first is the more potent here.

`C[C@H](CC1CCCCC1)C(=O)N1CCC(O)(Cn2cc(C(=O)N(C)C)c(Cl)cc2=O)C2(CCCC2)C1` (stereo partly drawn) [Example 144, 4-Chloro-1-((7-((R)-3-cyclohexyl-2-methylpropanoyl)-10-hydroxy-7-azaspiro[4.5]decan-10-yl)methyl)-N,N-dimethyl-6-oxo-1,6-dihydropyridine-3-carboxamide] and `C[C@H](CC1CCCCC1)C(=O)N1CCC(O)(Cn2cc(C(=O)N(C)C)c(-c3ccsc3)cc2=O)C2(CCCC2)C1` (stereo partly drawn) [Example 155, 1-((7-((R)-3-Cyclohexyl-2-methylpropanoyl)-10-hydroxy-7-azaspiro[4.5]decan-10-yl)methyl)-N,N-dimethyl-6-oxo-4-(thiophen-3-yl)-1,6-dihydropyridine-3-carboxamide] cannot be ordered by IC50: less than 500 nM for the first, less than 500 nM for the second.

`C[C@H](CC(F)(F)F)C(=O)N1CC[C@@](O)(Cn2cc(C(=O)N3CCNCC3)c(-c3ccccc3)cc2=O)C2(CCCC2)C1` [Example 217, 1-(((S)-10-Hydroxy-7-((R)-4,4,4-trifluoro-2-methylbutanoyl)-7-azaspiro[4.5]decan-10-yl)methyl)-4-phenyl-5-(piperazine-1-carbonyl)pyridin-2(1H)-one] and `C[C@H](CC(F)(F)F)C(=O)N1CC[C@@](O)(Cn2cnc(-c3cccc(F)c3)cc2=O)C2(CCCC2)C1` [Example 257, 6-(3-Fluorophenyl)-3-(((S)-10-hydroxy-7-((R)-4,4,4-trifluoro-2-methylbutanoyl)-7-azaspiro[4.5]decan-10-yl)methyl)pyrimidin-4(3H)-one] cannot be ordered by IC50: less than 500 nM for the first, less than 500 nM for the second.

`C[C@H](CC1CCCCC1)C(=O)N1CC[C@@](O)(Cn2cc(C(=O)N3CCNCC3)c(C3CC3)cc2=O)C2(CCCC2)C1` [Example 233, 1-(((S)-7-((R)-3-Cyclohexyl-2-methylpropanoyl)-10-hydroxy-7-azaspiro[4.5]decan-10-yl)methyl)-4-cyclopropyl-5-(piperazine-1-carbonyl)pyridin-2(1H)-one] showed an IC50 of less than 500 nM.
